Experimental findings from ChEMBL document CHEMBL5226286, “The application of isatin-based multicomponent-reactions in the quest for new bioactive and druglike molecules” (Eur J Med Chem, 2021) are described below.

In brackets after ≈: the same amount, converted by molar mass.

For one experiment, the system named is Proteus vulgaris. As to the kind of experiment: Antibacterial activity against Proteus vulgaris NCIM 2813 by microdilution broth method. Format: functional. (In general: Broth dilution looks for growth in wells or tubes with falling amounts of substance.)
Experiment [1] concerns Escherichia coli. In words: Antibacterial activity against Escherichia coli NCIM 2931 by microdilution broth method. Format: functional.
Another experiment deals with Salmonella sp. In words: Antibacterial activity against Salmonella sp. NCIM 2501 by microdilution broth method. Type of experiment: functional.
Experiment [2] has as its system Staphylococcus aureus. In words: Antibacterial activity against Staphylococcus aureus NCIM5021 by microdilution broth method. Format: functional.
The subject of another experiment is Pseudomonas aeruginosa. As to the kind of experiment: Antibacterial activity against Pseudomonas aeruginosa NCIM 5029 by microdilution broth method. Format: functional.
For experiment [3], the system named is Staphylococcus epidermidis. As to the kind of experiment: microbe, parasite or virus in culture. The note with it: PTCC 1435.
Description: Antimicrobial activity against Staphylococcus epidermidis PTCC 1435 by broth disk diffusion microdilution method
The test system of the next experiment is Proteus mirabilis. In words: microbe, parasite or virus in culture. As to conditions: PTCC 1776.
In another experiment the test system is LNCaP. As to the kind of experiment: Antiproliferative activity against human LNCaP cells. Type of experiment: functional, cell-based.
The test system of a further experiment is PC-3. As to the kind of experiment: Antiproliferative activity against human PC-3 cells. Type of experiment: functional, cell-based.
A further experiment has as its system ECa-109 cell line. As to the kind of experiment: Antiproliferative activity against human EC109 cells. Format: functional, cell-based.
The subject of a further experiment is SMMC-7721. In words: Antiproliferative activity against human SMMC-7721 cells. Type of experiment: functional, cell-based.
The next experiment concerns MGC-803. In words: Antiproliferative activity against human MGC-803 cells. Type of experiment: functional, cell-based.
The next experiment has as its system K562. In words: Anticancer activity against human K562 cells by MTT assay. Format: functional, cell-based. On the technique in general: Tetrazolium assays rely on reduction of a dye to a coloured formazan, in cell work by metabolically active cells.
The next experiment concerns A549. As to the kind of experiment: Anticancer activity against human A549 cells by MTT assay. Format: functional, cell-based.
The subject of the next experiment is T47D. In words: Antiproliferative activity against human T47D cells by MTT reduction assay. Format: functional, cell-based.
For a further experiment, the system named is MDA-MB-435. As to the kind of experiment: Antiproliferative activity against human MDA-MB-435 cells. Type of experiment: functional, cell-based.
In experiment [4] the test system is MDA-MB-231. As to the kind of experiment: Antiproliferative activity against human MDA-MB-231 cells by MTT reduction assay. Type of experiment: functional, cell-based.
For the next experiment, the target named is Cholinesterase (Homo sapiens, UniProt P06276). In words: Inhibition of BChE (unknown origin).
Another experiment addresses Acetylcholinesterase (Homo sapiens, UniProt P22303). As to the kind of experiment: Inhibition of AChE (unknown origin).
Experiment [5] deals with Syncephalastrum racemosum. As to the kind of experiment: Antifungal activity against Syncephalastrum racemosum RCMB 05922 assessed as zone of inhibition. Format: functional.
In experiment [6] the test system is Candida albicans. In words: Antifungal activity against Candida albicans RCMB 05036 assessed as zone of inhibition. Type of experiment: functional.
A further experiment deals with Aspergillus fumigatus. In words: Antifungal activity against Aspergillus fumigatus RCMB 02568 assessed as zone of inhibition. Format: functional.
The next experiment concerns Geotrichum candidum. As to the kind of experiment: Antifungal activity against Geotrichum candidum RCMB 05097 assessed as zone of inhibition. Format: functional.
The subject of the next experiment is HeLa. In words: Growth inhibition of human HeLa cells at 20 micromol relative to control. Format: functional. The note with it: dose 20 µmol.
In experiment [7] the test system is MDA-MB-231. In words: Growth inhibition of human MDA-MB-231 cells at 20 micromol relative to control. Format: functional. The note with it: dose 20 µmol.
For a further experiment, the system named is HepG2. In words: Growth inhibition of human HepG2 cells at 20 micromol relative to control. The note with it: dose 20 µmol. Format: functional.
The next experiment relates to Nakaseomyces glabratus. As to the kind of experiment: Antifungal activity against Candida glabrata. Type of experiment: functional.
In a further experiment the test system is Candida tropicalis. As to the kind of experiment: Antifungal activity against Candida tropicalis. Type of experiment: functional.
Experiment [8] relates to Candida albicans. As to the kind of experiment: Antifungal activity against Candida albicans. Format: functional.
Experiment [9] relates to Staphylococcus aureus. In words: Antibacterial activity against Staphylococcus aureus assessed as zone of inhibition. Type of experiment: functional.
In experiment [10] the test system is Escherichia coli. As to the kind of experiment: Antibacterial activity against Escherichia coli assessed as zone of inhibition. Format: functional.
In another experiment the test system is MCF7. In words: Antiproliferative activity against human MCF7 cells by MTT reduction assay. Type of experiment: functional, cell-based.

Chain of Cholinesterase (P06276 whole entry): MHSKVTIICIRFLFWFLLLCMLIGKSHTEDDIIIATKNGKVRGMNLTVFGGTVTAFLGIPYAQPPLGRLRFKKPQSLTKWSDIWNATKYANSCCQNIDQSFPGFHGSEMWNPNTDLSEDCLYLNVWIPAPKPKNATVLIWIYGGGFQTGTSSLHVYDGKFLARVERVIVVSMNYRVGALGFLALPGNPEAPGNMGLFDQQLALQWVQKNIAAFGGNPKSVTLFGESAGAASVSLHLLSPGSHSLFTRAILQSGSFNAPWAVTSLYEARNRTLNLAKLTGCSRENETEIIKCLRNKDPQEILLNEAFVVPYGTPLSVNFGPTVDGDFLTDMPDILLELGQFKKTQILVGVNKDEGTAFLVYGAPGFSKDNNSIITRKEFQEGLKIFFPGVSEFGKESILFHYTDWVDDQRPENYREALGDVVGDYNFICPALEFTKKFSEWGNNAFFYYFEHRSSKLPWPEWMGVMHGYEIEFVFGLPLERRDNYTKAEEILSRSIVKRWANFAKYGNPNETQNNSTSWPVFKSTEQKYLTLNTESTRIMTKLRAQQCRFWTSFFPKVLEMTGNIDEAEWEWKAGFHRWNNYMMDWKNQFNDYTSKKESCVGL
Chain of Acetylcholinesterase (P22303 whole entry): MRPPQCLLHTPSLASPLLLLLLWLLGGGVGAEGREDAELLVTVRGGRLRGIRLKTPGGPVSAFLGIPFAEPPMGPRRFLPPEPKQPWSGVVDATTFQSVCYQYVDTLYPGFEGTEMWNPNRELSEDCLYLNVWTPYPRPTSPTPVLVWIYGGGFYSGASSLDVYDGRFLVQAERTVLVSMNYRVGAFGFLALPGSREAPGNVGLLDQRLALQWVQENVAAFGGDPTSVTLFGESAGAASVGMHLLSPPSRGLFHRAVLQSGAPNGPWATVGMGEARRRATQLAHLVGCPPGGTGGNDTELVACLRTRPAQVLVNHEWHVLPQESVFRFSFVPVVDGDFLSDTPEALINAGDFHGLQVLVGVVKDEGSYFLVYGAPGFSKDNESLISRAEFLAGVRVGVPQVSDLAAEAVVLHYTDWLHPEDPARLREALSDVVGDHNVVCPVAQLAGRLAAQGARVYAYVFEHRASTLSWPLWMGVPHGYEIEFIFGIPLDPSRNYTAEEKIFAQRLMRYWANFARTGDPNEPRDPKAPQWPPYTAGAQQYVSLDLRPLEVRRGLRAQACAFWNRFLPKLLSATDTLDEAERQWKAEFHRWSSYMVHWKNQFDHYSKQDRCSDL
Description for Proteus mirabilis: Antimicrobial activity against Proteus mirabilis PTCC 1776 by broth disk diffusion microdilution method

On to `O=C1Nc2ccccc2[C@@]1(O)[C@@]1(OCc2ccc(Cl)cc2)C(=O)Nc2ccccc21`, for which the MIC in the experiment with Proteus vulgaris worked out at 0.149 µg/mL (≈ 0.354 µM); against Escherichia coli [1], 0.074 µg/mL (≈ 0.176 µM); with Salmonella sp., 0.074 µg/mL (≈ 0.176 µM); in the experiment on Staphylococcus aureus [2], 0.149 µg/mL (≈ 0.354 µM); with Pseudomonas aeruginosa, 0.074 µg/mL (≈ 0.176 µM).
For the molecule `CC1(C)S[C@@H]2[C@H](NC(=O)Cc3ccccc3)C(=O)N2[C@H]1C(=O)O` [PENICILLIN G], the MIC in experiment [3] stood at 1 µg/mL (≈ 2.99 µM); against Proteus mirabilis it was 16 µg/mL (≈ 47.8 µM).
One may read the IC50 as the point on the concentration scale where inhibition reaches its midpoint. For the molecule `O=C1c2ccccc2C2Oc3c(c(=O)oc4ccccc34)C3(C(=O)Nc4ccc(Br)cc43)C12` (stereo unspecified), the concentration for half-maximal inhibition (IC50) in the experiment with LNCaP amounted to 1.9 µM; in the experiment on PC-3, 0.03 µM.
Take `C[C@]12CC[C@H](O)CC1=CCC1C2CC[C@@]2(C)C1CC[C@@H]2C1=CC2(C(=O)N(Cc3ccc(Cl)c(Cl)c3)c3ccccc32)C(C#N)=C(N)N1` (stereo partly specified): the IC50 with ECa-109 cell line is 0.3 µM; with SMMC-7721, over 128 µM; in the experiment with MGC-803 it was over 128 µM.
As for `COc1ccc(CO[C@]2([C@@]3(O)C(=O)Nc4ccccc43)C(=O)Nc3ccccc32)cc1`, the MIC in the experiment with Proteus vulgaris was determined as 0.075 µg/mL (≈ 0.18 µM); against Escherichia coli [1], 0.038 µg/mL (≈ 0.0913 µM); against Salmonella sp., 0.038 µg/mL (≈ 0.0913 µM); in the experiment with Staphylococcus aureus [2], 0.075 µg/mL (≈ 0.18 µM); against Pseudomonas aeruginosa, 0.038 µg/mL (≈ 0.0913 µM).
`O=C1Nc2ccccc2[C@@]1(O)[C@@]1(OCc2ccc(Br)cc2)C(=O)Nc2ccccc21`: the MIC against Proteus vulgaris was determined as 0.067 µg/mL (≈ 0.144 µM); against Escherichia coli [1] it was 0.034 µg/mL (≈ 0.0731 µM); against Salmonella sp., 0.034 µg/mL (≈ 0.0731 µM); in the experiment with Staphylococcus aureus [2], 0.067 µg/mL (≈ 0.144 µM); in the experiment on Pseudomonas aeruginosa, 0.067 µg/mL (≈ 0.144 µM).
As to `CC(C)=CC(=O)[C@H]1[C@H](c2ccc(Br)cc2)CN(C)[C@]12C(=O)Nc1ccc(C)cc12`, the IC50 in the experiment on K562 amounted to 5.8 µM; with A549, 21.1 µM.
In the case of `CC/C(=C(\c1ccccc1)c1ccc(OCCN(C)C)cc1)c1ccccc1` [TAMOXIFEN], the IC50 with T47D was found to be 14.2 µM; with MDA-MB-435, 0.1 µM; with MDA-MB-231 [4], 14.5 µM.
Take `COc1cc2c(cc1OC)C(=O)[C@]1(C2)[C@H](c2ccccc2OC)[C@H](Cc2c[nH]c3ccccc23)NC12C(=O)Nc1ccccc12` (stereo partly specified): the values for the IC50 against Cholinesterase and at Acetylcholinesterase were 24 µM and 2.76 µM, respectively.
For `Cc1ccc([C@H]2[C@@]3(SC(=S)NC3=O)C3CCCN3[C@@]23C(=O)Nc2ccccc23)cc1` (stereo partly specified), the “diameter of the inhibition zone (DIZ)” value in experiment [5] is given as 19 mm; in the experiment with Candida albicans [6], 27 mm; in the experiment on Aspergillus fumigatus, 18 mm; in the experiment with Geotrichum candidum, 27 mm.
Regarding `N#CC1=C(N)OC2=C(CSC/C2=C/c2ccc(C(F)(F)F)cc2)C12C(=O)Nc1ccccc12` (stereo unspecified), the “growth inhibition (GI)” value in the experiment with HeLa amounted to 83.2%; with MDA-MB-231 [7] it was 61.3%; in the experiment on HepG2, 73.1%.
As for `C[C@]12CC[C@H](O)CC1=CCC1C2CC[C@@]2(C)C1CC[C@@H]2C1=CC2(C(=O)Nc3ccc(Cl)cc32)C(C#N)=C(N)N1` (stereo partly specified), the IC50 was 3.8 µM with ECa-109 cell line, 9.6 µM in the experiment with SMMC-7721 and 4.2 µM in the experiment with MGC-803.
Take `COc1cc2c(cc1OC)C(=O)[C@]1(C2)[C@H](c2ccc(C)cc2)[C@H](Cc2c[nH]c3ccccc23)NC12C(=O)Nc1ccccc12` (stereo partly specified): the half-maximal inhibitory concentration (IC50) on Cholinesterase worked out at 2.24 µM; at Acetylcholinesterase it was 14.2 µM.
As for `CC(C)=CC(=O)[C@H]1[C@H](c2ccc(F)cc2)CN(C)[C@]12C(=O)N(C)c1ccccc12`, the IC50 in the experiment with K562 came out at 7.2 µM; with A549 it was 19.1 µM.
With `CC1(C)CC(=O)C(=C2SC(N)=C(C#N)C3(S2)C(=O)Nc2ccc(Cl)cc23)C(=O)C1` (stereo unspecified), the MIC in experiment [3] stood at 2 µg/mL (≈ 4.48 µM); in the experiment on Proteus mirabilis, 16 µg/mL (≈ 35.9 µM).
In the case of `O=C(c1ccc(-c2ccc(F)cc2F)cc1)C1C(c2ccc(Cl)cc2)C2CCCN2C12C(=O)Nc1ccccc12` (stereo unspecified), the MIC against Nakaseomyces glabratus is 25 µg/mL (≈ 45 µM); in the experiment with Candida tropicalis it was 25 µg/mL (≈ 45 µM); against Candida albicans [8] it was 12.5 µg/mL (≈ 22.5 µM).
For the molecule `CCOC1=Nc2ccc(Br)cc2/C1=C\C(=O)c1cccc2ccccc12`, the “diameter of the inhibition zone (DIZ)” value in the experiment on Staphylococcus aureus [9] and in the experiment on Escherichia coli [10] was 6 mm throughout.
Take `Cc1ccc(/C=C2/CN(C)CC3=C2OC(N)=C(C#N)C32C(=O)Nc3ccccc32)cc1C` (stereo unspecified): the “growth inhibition (GI)” value in the experiment on HeLa came out at 87.1%; with MDA-MB-231 [7] it was 64.9%; with HepG2 it was 70.2%.
With `O=C(c1ccc(OCCN2CCC2)cc1)[C@H]1[C@H](c2ccccc2)C2CS[C@H](c3ccccc3)N2C12C(=O)Nc1ccc(Cl)cc12` (stereo partly specified), the IC50 in the experiment on T47D came to 4.7 µM; in the experiment with MDA-MB-231 [4] it was 4.2 µM; in the experiment with MCF7, 3.7 µM.
